According to US11759462B2, “Spirocyclic compounds as tryptophan hydroxylase inhibitors” (priority 2013, dated 2023):

Assays:
[1] = target: T1, Recombinant human TPH1 (MBP tagged) (Homo sapiens, UniProt P17752); test: TPH1 in vitro inhibition assay (kinetic fluorescence); format: biochemical; conditions: read-out: TPH1 Range (TPH1 inhibition IC50)
T1 construct: cloning full length human TPH1 cDNA in to a bacterial pMAL-c5E expression vector; made in house; host or cells: E. coli BL21 (DE3)
T1 sequence (P17752 1-444): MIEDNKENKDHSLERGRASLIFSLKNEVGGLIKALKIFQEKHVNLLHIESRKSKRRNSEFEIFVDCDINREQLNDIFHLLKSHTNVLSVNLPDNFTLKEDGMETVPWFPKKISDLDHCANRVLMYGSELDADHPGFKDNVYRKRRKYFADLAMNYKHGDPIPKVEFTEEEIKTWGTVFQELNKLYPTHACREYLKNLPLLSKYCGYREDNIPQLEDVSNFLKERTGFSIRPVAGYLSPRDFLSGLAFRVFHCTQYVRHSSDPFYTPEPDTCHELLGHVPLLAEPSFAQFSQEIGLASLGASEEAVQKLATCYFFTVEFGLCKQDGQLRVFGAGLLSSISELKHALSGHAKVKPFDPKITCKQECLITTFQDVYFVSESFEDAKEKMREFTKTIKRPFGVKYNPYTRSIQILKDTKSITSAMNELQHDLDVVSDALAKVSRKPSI
Method in brief: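 Final mix: 15 nM MBP-TPH1, 30 μM Trp, 36 μM 6-methyltetrahydropterin, 25 μM ferrous ammonium sulfate, 50 mM MES pH 7.1, 1% DMSO, room temperature.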

[2] = tested on: jejunal mucosal 5-HT in mice (C57 BL6); test: Intestinal 5-HT depletion assay (Example B, single 150 mg/kg oral dose); format: in vivo, mouse; conditions: one day after oral administration of a single 150 mg/kg dose, P-value class (ANOVA)
Procedure: The efficacy of the TPH1 inhibitors of the invention was assessed for the ability to decrease intestinal serotonin concentration in mice. Mice (C57 BL6) were administered a single 150 mg/kg dose of test article by oral gavage. Each animal was euthanized by exsanguination under isoflurane anesthesia. Jejunal intestinal mucosa was isolated and homogenized in 300 μL of a buffer containing 0.3M trichloroacetic acid, 0.1M sodium acetate, 10 mM EDTA, 20 mM sodium bisulfate and 50 mM ascorbic acid. Following centrifugation the 5-HT levels in the supernatants were measured by HPLC. The remaining mucosal pellet was solubilized overnight at 37° C. in a 0.1% sodium dodecyl sulfate buffer in 0.1N NaOH followed by determination of protein concentrations using a BCA protein assay (Pierce, Rockford, Ill. 5-HT levels were normalized to protein and data were expressed as mean percent reduction of mucosal 5-HT levels relative to vehicle control SEM (percent 5-HT reduction). All animal studies were carried out with protocols approved by the Institutional Animal Care and Use Committee.
P-values, indicating statistical significance of the data (ANOVA) are provided in the table: * refers to P<0.05, ** refers to P<0.01, *** refers to P<0.005, and refers to P<0.0005.

Cc1ccn(-c2cc(-c3ccncc3)ccc2[C@@H](Oc2cc(N3CCC4(CC3)CN[C@H](C(=O)O)C4)nc(N)n2)C(F)(F)F)n1 [Example 1g, (S)-8-(2-amino-6-((R)-2,2,2-trifluoro-1-(2-(3-methyl-1H-pyrazol-1-yl)-4-(pyridin-4-yl)phenyl)ethoxy)pyrimidin-4-yl)-2,8-diazaspiro[4.5]decane-3-carboxylic acid]
IC50 [1]: < 50 nM
Efficacy (statistical significance of reduction of mucosal 5-HT concentrations relative to vehicle) [2]: *** (*** refers to P<0.005)

Cc1ccn(-c2cc(-c3cnn(C)c3)ccc2[C@@H](Oc2cc(N3CCC4(CC3)CN[C@H](C(=O)O)C4)nc(N)n2)C(F)(F)F)n1 [Example 1h, (S)-8-(2-amino-6-((R)-2,2,2-trifluoro-1-(2-(3-methyl-1H-pyrazol-1-yl)-4-(1-methyl-1H-pyrazol-4-yl)phenyl)ethoxy)pyrimidin-4-yl)-2,8-diazaspiro[4.5]decane-3-carboxylic acid]
IC50 [1]: < 50 nM
Efficacy (statistical significance of reduction of mucosal 5-HT concentrations relative to vehicle) [2]: ** (** refers to P<0.01)

Cc1ccn(-c2cc(-c3ccc4c(C)n[nH]c4c3)ccc2[C@@H](Oc2cc(N3CCC4(CC3)CN[C@H](C(=O)O)C4)nc(N)n2)C(F)(F)F)n1 [Example 1o, (S)-8-(2-amino-6-((R)-2,2,2-trifluoro-1-(4-(3-methyl-1H-indazol-6-yl)-2-(3-methyl-1H-pyrazol-1-yl)phenyl)ethoxy)pyrimidin-4-yl)-2,8-diazaspiro[4.5]decane-3-carboxylic acid]
IC50 [1]: < 50 nM
Efficacy (statistical significance of reduction of mucosal 5-HT concentrations relative to vehicle) [2]: ** (** refers to P<0.01)

CCOC(=O)CCc1ccc([C@@H](Oc2cc(N3CCC4(CC3)CN[C@H](C(=O)OCC)C4)nc(N)n2)C(F)(F)F)c(-n2ccc(C)n2)c1 [Example 63bz, (S)-ethyl 8-(2-amino-6-((R)-1-(4-(3-ethoxy-3-oxopropyl)-2-(3-methyl-1H-pyrazol-1-yl)phenyl)-2,2,2-trifluoroethoxy)pyrimidin-4-yl)-2,8-diazaspiro[4.5]decane-3-carboxylate]
Efficacy (statistical significance of reduction of mucosal 5-HT concentrations relative to vehicle) [2]: ** (** refers to P<0.01)

CCOC(=O)[C@@H]1CC2(CCN(c3cc(O[C@H](c4ccc(-c5ccc(CNC(C)=O)cc5)cc4-n4ccc(C)n4)C(F)(F)F)nc(N)n3)CC2)CN1 [Example 63cp, (S)-ethyl 8-(6-((R)-1-(4′-(acetamidomethyl)-3-(3-methyl-1H-pyrazol-1-yl)-[1,1′-biphenyl]-4-yl)-2,2,2-trifluoroethoxy)-2-aminopyrimidin-4-yl)-2,8-diazaspiro[4.5]decane-3-carboxylate]
Efficacy (statistical significance of reduction of mucosal 5-HT concentrations relative to vehicle) [2]: *** (*** refers to P<0.005)

CCOC(=O)c1ccccc1-c1ccc(-n2ccc(C)n2)c([C@@H](Oc2cc(N3CCC4(CC3)CN[C@H](C(=O)OCC)C4)nc(N)n2)C(F)(F)F)c1 [Example 63da, (S)-ethyl 8-(2-amino-6-((R)-1-(2′-(ethoxycarbonyl)-4-(3-methyl-1H-pyrazol-1-yl)-[1,1′-biphenyl]-3-yl)-2,2,2-trifluoroethoxy)pyrimidin-4-yl)-2,8-diazaspiro[4.5]decane-3-carboxylate]
Efficacy (statistical significance of reduction of mucosal 5-HT concentrations relative to vehicle) [2]: *** (*** refers to P<0.005)

CCOC(=O)CCc1ccc(-c2ccc(-n3ccc(C)n3)c([C@@H](Oc3cc(N4CCC5(CC4)CN[C@H](C(=O)OCC)C5)nc(N)n3)C(F)(F)F)c2)cc1 [Example 63di, (S)-ethyl 8-(2-amino-6-((R)-1-(4′-(3-ethoxy-3-oxopropyl)-4-(3-methyl-1H-pyrazol-1-yl)-[1,1′-biphenyl]-3-yl)-2,2,2-trifluoroethoxy)pyrimidin-4-yl)-2,8-diazaspiro[4.5]decane-3-carboxylate]
Efficacy (statistical significance of reduction of mucosal 5-HT concentrations relative to vehicle) [2]: *** (*** refers to P<0.005)

CCOC(=O)[C@@H]1CC2(CCN(c3cc(O[C@H](c4ccc(-c5ccc(OC)c(OC)c5)cc4)C(F)(F)F)nc(N)n3)CC2)CN1 [Example 63g, (S)-ethyl 8-(2-amino-6-((R)-1-(3′,4′-dimethoxy-[1,1′-biphenyl]-4-yl)-2,2,2-trifluoroethoxy)pyrimidin-4-yl)-2,8-diazaspiro[4.5]decane-3-carboxylate]
Efficacy (statistical significance of reduction of mucosal 5-HT concentrations relative to vehicle) [2]: *** (*** refers to P<0.005)

CCCCCOC(=O)[C@@H]1CC2(CCN(c3cc(O[C@H](c4ccc(Cl)cc4-n4ccc(C)n4)C(F)(F)F)nc(N)n3)CC2)CN1 [Example 64c, (S)-pentyl 8-(2-amino-6-((R)-1-(4-chloro-2-(3-methyl-1H-pyrazol-1-yl)phenyl)-2,2,2-trifluoroethoxy)pyrimidin-4-yl)-2,8-diazaspiro[4.5]decane-3-carboxylate]
Efficacy (statistical significance of reduction of mucosal 5-HT concentrations relative to vehicle) [2]: **** (and refers to P<0.0005)

CCCOC(=O)[C@@H]1CC2(CCN(c3cc(O[C@H](c4ccc(Cl)cc4-n4ccc(C)n4)C(F)(F)F)nc(N)n3)CC2)CN1 [Example 64e, (S)-propyl 8-(2-amino-6-((R)-1-(4-chloro-2-(3-methyl-1H-pyrazol-1-yl)phenyl)-2,2,2-trifluoroethoxy)pyrimidin-4-yl)-2,8-diazaspiro[4.5]decane-3-carboxylate]
Efficacy (statistical significance of reduction of mucosal 5-HT concentrations relative to vehicle) [2]: **** (and refers to P<0.0005)

Cc1ccn(-c2cc(Cl)ccc2[C@@H](Oc2cc(N3CCC4(CC3)CN[C@H](C(=O)OCC(C)(C)C)C4)nc(N)n2)C(F)(F)F)n1 [Example 64f, (S)-neopentyl 8-(2-amino-6-((R)-1-(4-chloro-2-(3-methyl-1H-pyrazol-1-yl)phenyl)-2,2,2-trifluoroethoxy)pyrimidin-4-yl)-2,8-diazaspiro[4.5]decane-3-carboxylate]
Efficacy (statistical significance of reduction of mucosal 5-HT concentrations relative to vehicle) [2]: **** (and refers to P<0.0005)

CCCCOC(=O)[C@@H]1CC2(CCN(c3cc(O[C@H](c4ccc(Cl)cc4-n4ccc(C)n4)C(F)(F)F)nc(N)n3)CC2)CN1 [Example 64g, (S)-butyl 8-(2-amino-6-((R)-1-(4-chloro-2-(3-methyl-1H-pyrazol-1-yl)phenyl)-2,2,2-trifluoroethoxy)pyrimidin-4-yl)-2,8-diazaspiro[4.5]decane-3-carboxylate]
Efficacy (statistical significance of reduction of mucosal 5-HT concentrations relative to vehicle) [2]: * (* refers to P<0.05)

Cc1ccn(-c2cc(Cl)ccc2[C@@H](Oc2cc(N3CCC4(CC3)CN[C@H](C(=O)OC(C)(C)C)C4)nc(N)n2)C(F)(F)F)n1 [Example 65a, (S)-Tert-butyl 8-(2-amino-6-((R)-1-(4-chloro-2-(3-methyl-1H-pyrazol-1-yl)phenyl)-2,2,2-trifluoroethoxy)pyrimidin-4-yl)-2,8-diazaspiro[4.5]decane-3-carboxylate]
Efficacy (statistical significance of reduction of mucosal 5-HT concentrations relative to vehicle) [2]: **** (and refers to P<0.0005)

Cc1ccn(-c2cc(Cl)ccc2[C@@H](Oc2cc(N3CCC4(CC3)CN[C@H](C(=O)OCCOC(=O)[C@H](N)C(C)C)C4)nc(N)n2)C(F)(F)F)n1 [Example 66c, (S)-2-(((R)-2-amino-3-methylbutanoyl)oxy)ethyl 8-(2-amino-6-((R)-1-(4-chloro-2-(3-methyl-1H-pyrazol-1-yl)phenyl)-2,2,2-trifluoroethoxy)pyrimidin-4-yl)-2,8-diazaspiro[4.5]decane-3-carboxylate]
Efficacy (statistical significance of reduction of mucosal 5-HT concentrations relative to vehicle) [2]: **** (and refers to P<0.0005)

(S)-2-(pivaloyloxy)ethyl 8-(2-amino-6- ((R)-1-(4-chloro-2-(3-methyl-1H-pyrazol- 1-yl)phenyl)-2,2,2- trifluoroethoxy)pyrimidin-4-yl)-2,8- diazaspiro[4.5]decane-3-carboxylate [Example 66d]
Efficacy (statistical significance of reduction of mucosal 5-HT concentrations relative to vehicle) [2]: **** (and refers to P<0.0005)

(S)-isopropyl 8-(2-amino-6-((R)-1-(4-chloro-2-(3-methyl- 1H-pyrazol-1-yl)phenyl)-2,2,2-trifluoroethoxy)pyrimidin- 4-yl)-2,8-diazaspiro[4.5]decane-3-carboxylate [Example 64h]
Efficacy (statistical significance of reduction of mucosal 5-HT concentrations relative to vehicle) [2]: ** (** refers to P<0.01)
